# Reference: patent US8680159B2, “Bradykinin 1 receptor modulating compounds” (Gruenenthal GmbH, priority 2010, dated 2014)
# Target: T1, human B1R receptor (CHO K1 cells stably transfected with the human B1R gene) (Homo sapiens, UniProt P46663)
# T1 construct: expressed in transfected cells; host or cells: CHO K1 cells (Chinese hamster ovary), stably transfected
# T1 sequence (P46663 1-353): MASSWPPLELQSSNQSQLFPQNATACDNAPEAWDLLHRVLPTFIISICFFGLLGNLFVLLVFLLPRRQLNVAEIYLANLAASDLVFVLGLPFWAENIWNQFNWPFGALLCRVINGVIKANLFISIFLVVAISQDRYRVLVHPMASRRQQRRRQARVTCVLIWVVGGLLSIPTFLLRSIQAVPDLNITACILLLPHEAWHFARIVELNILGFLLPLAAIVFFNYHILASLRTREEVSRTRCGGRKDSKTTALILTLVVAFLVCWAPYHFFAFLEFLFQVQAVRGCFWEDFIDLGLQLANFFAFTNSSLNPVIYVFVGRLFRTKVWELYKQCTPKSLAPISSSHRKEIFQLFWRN
# Assay: Functional study on the bradykinin receptor 1 (B1R), Ca2+ fluorescence (Fluo-4) FLIPR/Novostar assay, hB1R cells
# Format: cell-based
# Settings: CHO-K1, read-out: % Inhibition (h-B1R) at 10 μM
# Procedure: The agonistic or antagonistic action of substances can be quantified on the bradykinin receptor 1 (B1R) of the species human and rat using ectopically expressing cell lines (CHO K1 cells) and with the aid of a Ca^2+-sensitive dye (Fluo-4) using a fluorescent imaging plate reader (FLIPR). The indication in % activation is based on the Ca^2+ signal after addition of Lys-Des-Arg^9-bradykinin (0.5 nM) or Des-Arg^9-bradykinin (100 nM). Antagonists lead to suppression of the Ca^2+ influx after the addition of the agonist. % Inhibition compared with the maximum achievable inhibition is indicated.
# The agonistic or antagonistic action of substances can be determined on the bradykinin receptor 1 (B1R) of the species human and rat using the following assay. According to this assay, the increase in intracellular Ca^2+ following administration of a B1R agonist is quantified with the aid of a Ca^2+-sensitive dye (Fluo-4 type, Molecular Probes Europe BV, Leiden, Netherlands) using a Fluorescent Imaging Plate Reader (FLIPR, Molecular Devices, Sunnyvale, USA) and/or using a Novostar (BMG Labtech GmbH, Offenburg, Germany).
# Chinese hamster ovary cells (CHO K1 cells) which have been stably transfected with the human B1R gene (hB1R cells) or with the B1R gene of the rat (rB1R cells) are used. For functional studies, the cells are plated out on black 96-well plates having a clear base (BD Biosciences, Heidelberg, Germany or Greiner, Frickenhausen, Germany) in a density of 20,000-35,000 cells/well. The cells are left overnight at 37° C. and with 5% CO2 in culture medium (hB1R cells: Nutrient Mixture Ham's F12, Gibco Invitrogen GmbH, Karlsruhe, Germany or DMEM, Sigma-Aldrich, Taufkirchen, Germany; rB1R cells: D-MEM/F12, Gibco Invitrogen GmbH, Karlsruhe, Germany), with 10 vol. % FBS (fetal bovine serum, Gibco Invitrogen GmbH, Karlsruhe, Germany or PAN Biotech GmbH, Aidenbach, Germany). On the following day, the cells are loaded for 60 minutes at 37° C. with 2.13 μM Fluo-4 (Molecular Probes Europe BV, Leiden, Netherlands) in HBSS buffer (Hank's buffered saline solution, Gibco Invitrogen GmbH, Karlsruhe, Germany) […] (Sigma-Aldrich, Taufkirchen, Germany) and 10 mM HEPES (Sigma-Aldrich, Taufkirchen, Germany). The plates are then washed twice with HBSS buffer, and HBSS buffer additionally containing 0.1% BSA (bovine serum albumin; Sigma-Aldrich, Taufkirchen, Germany), 5.6 mM glucose and 0.05% gelatin (Merck KGaA, Darmstadt, Germany) is added to the plates. After incubation for a further 20 minutes at room temperature, the plates are inserted into the FLIPR or Novostar for Ca^2+ measurement. Alternatively, washing is carried out with buffer A (15 mM HEPES, 80 mM NaCl, 5 mM KCl, 1.2 mM CaCl2, 0.7 mM MgSO4, 2 g/l glucose, 2.5 mM probenecid) followed by loading with buffer A with added 2.5 μM Fluo-4 and 0.025% Pluronic F127 (Sigma-Aldrich, Taufkirchen, Germany). The cells are then washed twice with buffer A and incubated for 30 minutes at room temperature with buffer A additionally containing 0.05% BSA and 0.05% gelatin and are then inserted into the FLIPR or Novostar for Ca^2+ measurement. The Ca^2+-dependent fluorescence is measured before and after the addition of substances (λex=488 nm, λem=540 nm). Quantification is carried out by measuring the highest fluorescence intensity (FC, fluorescence counts) over time.
# The FLIPR protocol consists of 2 substance additions, which are pipetted in the FLIPR. In the case of measurements using the Novostar, only the second substance addition is pipetted in the device. Both devices measure the fluorescence intensity over time. Test substances (10 μM) are first pipetted onto the cells and the intracellular Ca^2+ increase is compared with the control (hB1R: Lys-Des-Arg^9-bradykinin>=50 nM; rB1R: Des-Arg^9-bradykinin>=1 μM). This gives the % activation, based on the Ca^2+ signal after addition of Lys-Des-Arg^9-bradykinin (>=50 nM) or Des-Arg^9-bradykinin (>=1 μM). […]
row,inhibition at 10 µM [%],SMILES
1,91,"Cc1cc(N2CCC(N(C)C(=O)c3ccc4c(c3)C(N(C)C(=O)c3c(Cl)cccc3C(F)(F)F)CC4)CC2)cc(C)n1 (centres unmarked) [CC_H-108, 3-[[2-Chloro-6-(trifluoromethyl)-benzoyl]-methyl-amino]-N-[1-(2,6-dimethyl-pyridin-4-yl)-piperidin-4-yl]-N-methyl-2,3-dihydro-1H-indene-5-carboxylic acid amide]"
2,100,"Cc1cc(N2CCC(N(C)C(=O)c3ccc4c(c3)C(NC(=O)c3sccc3Cl)CC4)CC2)cc(C)n1 (centres unmarked) [CC_H-109, 3-Chloro-N-[6-[[1-(2,6-dimethyl-pyridin-4-yl)-piperidin-4-yl]-methyl-carbamoyl]-2,3-dihydro-1H-inden-1-yl]-thiophene-2-carboxylic acid amide]"
3,100,"Cc1cc(N2CCC(N(C)C(=O)c3ccc4c(c3)C(NS(=O)(=O)c3c(Cl)cccc3C(F)(F)F)CC4)CC2)cc(C)n1 (centres unmarked) [CC_H-111, 3-[[[2-Chloro-6-(trifluoromethyl)-phenyl]sulfonyl]amino]-N-[1-(2,6-dimethyl-pyridin-4-yl)-piperidin-4-yl]-N-methyl-2,3-dihydro-1H-indene-5-carboxylic acid amide]"
4,100,"Cc1cc(N2CCC(N(C)C(=O)c3ccc4c(c3)C(NC(=O)c3cnccc3C(F)(F)F)CC4)CC2)cc(C)n1 (centres unmarked) [CC_H-112, N-[6-[[1-(2,6-Dimethyl-pyridin-4-yl)-piperidin-4-yl]-methyl-carbamoyl]-2,3-dihydro-1H-inden-1-yl]-4-(trifluoromethyl)-pyridine-3-carboxylic acid amide]"
5,99,"Cc1cc(N2CCC(N(C)C(=O)c3ccc4c(c3)C(NC(=O)c3c(C)cccc3C)CC4)CC2)cc(C)n1 (centres unmarked) [CC_H-115, 3-[(2,6-Dimethyl-benzoyl)amino]-N-[1-(2,6-dimethyl-pyridin-4-yl)-piperidin-4-yl]-N-methyl-2,3-dihydro-1H-indene-5-carboxylic acid amide]"
6,92,"O=C(NCCC1CCN(c2ccncc2)CC1)c1ccc2c(c1)C(NC(=O)C1CCCCC1)CC2 (centres unmarked) [CC_H-116, 3-(Cyclohexanecarbonylamino)-N-[2-(1-pyridin-4-yl-piperidin-4-yl)-ethyl]-2,3-dihydro-1H-indene-5-carboxylic acid amide]"
7,89,"Cc1cc(N2CCC(N(C)C(=O)c3ccc4c(c3)C(NC(=O)c3cncnc3)CC4)CC2)cc(C)n1 (centres unmarked) [CC_H-118, N-[6-[[1-(2,6-Dimethyl-pyridin-4-yl)-piperidin-4-yl]-methyl-carbamoyl]-2,3-dihydro-1H-inden-1-yl]-pyrimidine-5-carboxylic acid amide]"
8,100,"Cc1cc(N2CCC(N(C)C(=O)c3ccc4c(c3)C(NC(=O)c3cc(F)ccc3Cl)CC4)CC2)cc(C)n1 (centres unmarked) [CC_H-119, 3-[(2-Chloro-5-fluoro-benzoyl)amino]-N-[1-(2,6-dimethyl-pyridin-4-yl)-piperidin-4-yl]-N-methyl-2,3-dihydro-1H-indene-5-carboxylic acid amide]"
9,100,"Cc1cc(N2CCC(N(C)C(=O)c3ccc4c(c3)C(NC(=O)CCC3CCCC3)CC4)CC2)cc(C)n1 (centres unmarked) [CC_H-120, 3-(3-Cyclopentyl-propanoylamino)-N-[1-(2,6-dimethyl-pyridin-4-yl)-piperidin-4-yl]-N-methyl-2,3-dihydro-1H-indene-5-carboxylic acid amide]"
10,100,"Cc1cc(N2CCC(N(C)C(=O)c3ccc4c(c3)C(NS(=O)(=O)Cc3ccccc3C(F)(F)F)CC4)CC2)cc(C)n1 (centres unmarked) [CC_H-121, N-[1-(2,6-Dimethyl-pyridin-4-yl)-piperidin-4-yl]-N-methyl-3-[[[2-(trifluoromethyl)-phenyl]-methylsulfonyl]amino]-2,3-dihydro-1H-indene-5-carboxylic acid amide]"
11,100,"Cc1cc(N2CCC(N(C)C(=O)c3ccc4c(c3)C(NC(=O)CC(C)C)CC4)CC2)cc(C)n1 (centres unmarked) [CC_H-122, N-[1-(2,6-Dimethyl-pyridin-4-yl)-piperidin-4-yl]-N-methyl-3-(3-methyl-butanoylamino)-2,3-dihydro-1H-indene-5-carboxylic acid amide]"
